For data set [1], the system named is A2780 cells. The data set is described as follows: Annexin V FITC/7-AAD apoptosis assay. Format: cell-based. The settings on record: for intact cells: dark conditions. As to the method:
A2780 cells (5×10^5 cells/mL, 100 μL) were seeded in each well of a Black 96-well plate and incubated with 5 or 10 μM PBS solution of ExBox^4+⊃DPP for 12 h. After incubation, cells were washed with 1×PBS, added with 100 μL of DMEM and immediately irradiated with visible light using Max-303 Xenon Light Source (385-740 nm, Asahi Spectra) at 25 and 50 mW light intensities for 10 min. After irradiation, cells were incubated for an additional 3 h prior to being trypsinized and recovered for annexin V staining. 50 μL of Annexin V solution (1:50 FITC Annexin V in Annexin V staining buffer) was added to cells and was incubated at room temperature for 20 min. 500 μL of 1×PBS was then added to cells, which were centrifuged at 400 ref for 5 min, and the supernatant was discarded. Cells were resuspended in 100 μL of 1:20 7-AAD in cell staining buffer and were incubated for 10 min prior to analysis on a BD Fortessa flow cytometer. Cells were first gated for singlet events using FSC-A vs. FSC-H, after which debris was excluded used FSC-A vs. SSC-A. All remaining events were gated as live, dead, or apoptotic based on annexin V staining vs. 7-AAD staining, with dead cells staining 7-AAD+, live cells staining as 7-AAD- and annexin-V-, and apoptotic cells staining 7-AAD-annexin-V+. Cells without irradiation were used as controls.

Data set [2] relates to A2780 cells. In words: In vitro PDT efficacy, MTT assay after visible light irradiation. Format: cell-based, human. How it is done:
A2780 cells (human ovarian cancer cell line) and MCF-7 cells (human breast adenocarcinoma cell line) obtained from Sigma-Aldrich and American Type Culture Collection (ATCC, Rockville, MD, USA), respectively were utilized for cell culture experiments. These cells were cultured in Dulbecco's Modified Eagle's Medium (DMEM) supplemented with 10% fetal bovine serum (FBS), penicillin (100 IU/mL) and streptomycin (100 μg/mL) at 37° C. in the presence of air (95%) and CO2 (5%).
A2780 or MCF-7 cells (2×10^5 cells/mL, 100 μL) were seeded in each well of a black 96-well plate. Stock solution of ExBox^4+⊃DPP in PBS (1 mM, 10 μL) was added to each well to achieve working concentrations and incubated for 12 h. After incubation, wells were washed with PBS, added with 100 μL of DMEM and immediately irradiated with visible light using Max-303 Xenon Light Source (385-740 nm, Asahi Spectra) at different light intensities (5-50 mW) for 1 to 15 min. Following irradiation, cells were incubated overnight and then added with MTT (5 mg/mL in PBS, 10 μL). After 4 h incubation with MTT, media from each well was pipetted out, formazan crystals deposited on the plate were dissolved in 200 μL of Me2SO, and the absorbance of each well was measured using a microplate reader at 560 nm. All the samples were analyzed in quadruplicates.
The percentage cell viability was calculated using the following formula: % cell viability=(OD of treated sample/OD of untreated sample)*100.
(In general: Tetrazolium dyes change colour on reduction, which living cells bring about.)

In the next data set the test system is ExBox^4+ and DPP. The data set is described as follows: 1H NMR titration, host-guest association constant (1:1 binding model). The settings on record: 1H NMR titration in (CD3)2CO, 298 K. How it is done:
The synthesis of ExBox•4Cl was carried out following our previously reported procedure^17. Solid DPP (0.46 mg, […]) was dissolved in Me2CO (1 mM, 1 mL) and added to a solution of ExBox•4Cl in H2O (1.0 mM, 1 mL). The mixture was sonicated for 15 min, Me2CO was removed in vacuum, and the H2O portion was passed through a 0.45-μm filter to yield 1:1 ExBox^4+⊃DPP complex (FIG. 1A) in water. Upon complex formation, the aqueous solution color changed to light orange-pink or tangerine. […] The resonances for the α and CH2 protons of ExBox^4+ were affected only slightly by the shielding effect of DPP as they are located at the corners and display only slight shifts in their […] spectra. This pattern is in excellent agreement with the inclusion of DPP inside ExBox^4+ in solution. […] The association constant (Ka) obtained from 1:1 binding model was calculated to be 12600±300 M^−1 from the chemical shifts of […] titrations experiments (FIG. 1B-1C) between ExBox^4+ and DPP in (CD3)2CO.
The ^1H NMR (298 K, 500 MHz) titration was performed by adding small volumes of a solution of DPP in Me2CO-d6 to a solution of ExBox•4PF6 in Me2CO-d6. […]
(CD3)2CO stock solutions of ExBox^4+ (0.4 mM) and DPP (5.4 mM) were prepared. […] The NMR spectra were recorded after each addition of DPP solution. […]

The test system of data set [3] is A2780 cells. The data set is described as follows: Calcein-AM/Ethidium homodimer-1 live-dead assay. Type of data set: cell-based, human. The settings on record: 10 μM. As to the method:
A2780 cells (1×10^5 cells/mL, 300 μL) were plated in each well of an 8-well μ-slide (ibidi cell focus) and cultured overnight. PBS solution of ExBox^4+⊃DPP was added to each well and incubated for predetermined time points. For cellular co-localization studies, cells were washed with phenol free DMEM and stained with LysoTracker green (lysosome stain, 1:1000 dilution) or MitoSpy™ Green FM (mitochondria stain, 1:2000 dilution) or NucBlue™ Live ReadyProbes™ Reagent (nuclei stain, 1 drop). For the live-dead assay, cells were incubated with PBS solution of ExBox^4+⊃DPP irradiated for 10 min at […] light intensity, incubated overnight, and stained with Calcein AM (2 μM) and Ethidium homodimer-1 (4 μM). Plated cells were imaged within a humidified chamber using a 63× oil-immersion objective on a SP5 Leica Confocal Microscope using HyD detectors and lasers.

Bounds are passed on as bounds.

Turning to `C1=Cc2nc1cc1ccc([nH]1)c(-c1ccccc1)c1nc(cc3ccc([nH]3)c2-c2ccccc2)C=C1.c1cc2ccc1C[n+]1ccc(cc1)-c1ccc(cc1)-c1cc[n+](cc1)Cc1ccc(cc1)C[n+]1ccc(cc1)-c1ccc(cc1)-c1cc[n+](cc1)C2` [ExBox^4+⊃DPP], the intact cells in the data set on A2780 cells [1] (5 μM) is reported as 79%; with A2780 cells [1] (10 μM), 72%. Also, the apoptotic cells entry with A2780 cells [1] (10 μM versus 5 μM, 0.078 or 0.156 Jcm^−2 light dose, 3 h post irradiation) was “a smaller number of apoptotic cells”. Further, in the data set on A2780 cells [2] (10 μM, 10 min visible light irradiation, 0.078 and 0.156 J cm^−2), the “killing of A2780 cells” value is on record as above 95%. Further, in the data set with A2780 cells [2] (0.078 J cm^−2 light dose, 5 μM), the “irradiation time to kill >90% A2780 cells” value was determined as 10 min. Besides, the “killing of A2780 cells at other concentrations” value in the data set with A2780 cells [2] (0.1, 0.05 and 0.01 μM, 10 min irradiation, 0.078 and 0.156 J cm^−2) was “less efficient”. The “irradiation time to kill >90% of cells” value with A2780 cells [2] (0.156 J cm^−2 light dose, 10 μM) was found to be 2 min. For the same compound, the “effect on cell viability (MTT)” value is listed as “almost no effect on cell viability” with A2780 cells [2] (1.25 and 0.625 μM, light doses 0.078 and 0.156 J cm^−2); “no effect on cell viability” with A2780 cells [2] (light dose, same concentrations). Also, the “A2780 cell-death (MTT)” value in the data set with A2780 cells [2] (2.5, 5 and 10 μM, light doses 0.078 and 0.156 J cm^−2) is above 90%. The “efficacy at light dose 0.032 J cm^−2 (MTT)” value in the data set with A2780 cells [2] (light dose 0.032 J cm^−2) is “efficacious only at 5 and 10 μM concentrations”. Moreover, in the data set on ExBox^4+ and DPP, the “association constant (Ka)” value is 12600 ± 300 M⁻¹. The figures for the live-dead staining entry in the data set with A2780 cells [3] (0.156 J cm^−2 light dose for 10 min) and in the data set with A2780 cells [3] (dark conditions) were “red fluorescence” and “bright green fluorescence”, respectively.

(Values after patent US12433870B2, “Supramolecular photoprotection of a photosensitizer” (Northwestern University, priority 2019, dated 2025).)
